Key:
U251 cells [1] = experiment: Intracellular level of 5-ALA-induced PpIX by flow cytometric analysis, U251; type: cell-based, human; conditions: average±SE
Method: (§1) Two types of rat glioma cell lines (9L and C6) and human glioma cell lines (U251 and T98G) were used. Before use, 9L and T98G were cultured in RPMI-1640 at 37° C. for several days, whereas C6 and U251 were cultured in 10% FBS-added Dulbecco's modified Eagle's medium (DMEM) at 37° C. for several days. These cell lines were maintained at 37° C. in 5% CO2 in a humidified incubator. The cells were subcultured at an exponential growth phase thereof, using 0.05% trypsin solution containing 0.5 mM ethylenediamine tetraacetate. 70% confluent cells were used in the subsequent experiments. 5-ALA was dissolved in RPMI-1640 (9L and T98G), or in 10% FBS-added DMEM (C6 and U251), to a final concentration of 1 mM.
(§2) The cells were seeded on a 100-mm culture dish, and were then cultured. The cells were incubated in a complete medium containing 1 mM 5-ALA for 4 hours, and were then washed with PBS. The resulting cells were peeled from the bottom layer by a trypsin treatment, and were then recovered by centrifugation (400×g, 3 min, and 4° C.). Immediately after the recovery, the cells were re-suspended in cold PBS/FBS, and were then analyzed using a flow cytometer (EC800; Sony Biotechnology, Tokyo, Japan). Generally, 30,000 cells contained in each sample were evaluated. Using 488-nm argon ion laser, fluorescence was excited from intracellular PpIX, and the fluorescence was then detected using a 640/30 nm band-pass filter. In order to prevent photoactivation of 5-ALA-induced PpIX, all procedures were carried out in a dark room. The flow cytometric data were analyzed using FlowJo (Tree Star Inc., Ashland, Oreg., USA). The mean fluorescence intensity (MFI) of PpIX fluorescence in the 5-ALA-treated cells, with respect to that of 5-ALA-not-treated cells, was calculated for each cell line.

9L cells = experiment: Intracellular level of 5-ALA-induced PpIX by flow cytometric analysis, 9L; type: cell-based, rat; conditions: average±SE
Method: as §1, §2

[2] = living body; cited from earlier work
[3] = system: Iba1-positive macrophages in subcutaneously transplanted 9L gliosarcoma; experiment: Pathologic examination of subcutaneous tumor, Iba1 staining of macrophages and microdensitometry; type: in vivo, rat
Method: After completion of the immobilization, all of the tumor samples were cut at the center of tumor in the longitudinal direction. The obtained fragments were each stained with hematoxylin and eosin (HE), and were also stained with Iba1 or CD68 for detection of macrophages. Briefly, the sample was bathed in water for pre-treatment (40 minutes, 95° C.), and the deparaffinized portion was then washed with KN Buffer (KN-09002; Pathology Institute Corp, Toyama, Japan). Subsequently, the fragment was incubated with goat polyclonal anti-Iba1 (1:3000, ab107159, Abcam) or anti-CD68 antibody (1:100, MCA-341R, AbD) for 30 minutes, and were further washed with KN Buffer. Subsequently, regarding Iba1, the fragment was incubated with Simple Stain™ MAX-PO (G) (H1301; Nichirei Bioscience Inc. Japan) for 30 minutes. Regarding CD68, the fragment was incubated with Envision+Dual Link HRP-label/polymer reagent (Dako: K4061) for 30 minutes. The resultant was finally washed with KN Buffer, and was then treated with diaminobenzidine (DAB) for 10 minutes for color development. […]
Moreover, the procedures of the previous study (Prall F, Maletzki C, Linnebacher M: Microdensitometry of osteopontin as an immunohistochemical prognostic biomarker in colorectal carcinoma tissue microarrays: potential and limitations of the method in ‘biomarker pathology’. Histopathology 61: 823-32, 2012.) were partially modified, and using public domain software, Image J (Wayne Rasband, National Institute of Mental Health, Bethesda, Md.), microdensitometry was carried out regarding immunohistochemical quantitative evaluation of Iba1 on a digital photomicrograph. […] In order to quantify the color signals of immunohistochemical DAB of Iba1, the image data of all samples were transferred into Image J, and were then converted to 8-bit grayscale images. […] The present inventors have defined the mean gray value (MGV) of all of the tumor samples in a control group (n=5) as a representative value, and the relative intensities of MGVs in other groups to the aforementioned representative value were then calculated.

U251 cells [4] = experiment: Intracellular localization of ROS 12 hours after ionizing radiation (DCFD, confocal laser scanning microscope), U251; type: cell-based, human; conditions: pre-treatment with 1 mM 5-ALA 4 hours before 10 Gy, 12 hours after irradiation, vs no 5-ALA
Method: Intracellular ROS production was detected by our method using DCFD and a confocal laser scanning microscope (LMS5 Pascal; Carl Zeiss, Jena, Germany) (Yamamoto J, Ogura S, Tanaka T, et al: Radiosensitizing effect of 5-aminolevulinic acid-induced protoporphyrin IX in glioma cells in vitro. Oncol Rep 27: 1748-1752, 2012.). Briefly, the cells were seeded in a fresh medium containing 1 mM 5-ALA in a 35-mm glass-bottom culture dish (Asahi Techno Glass, Tokyo, Japan), and were then incubated at 37° C. for 4 hours in a dark room. Thereafter, the cells were washed with PBS, and were then exposed to an ionizing radiation of 10 Gy. Twelve hours after the ionizing irradiation, the cells were washed with PBS twice, and were then incubated together with 10 μM DCFD for 15 minutes. Thereafter, the cells were washed with PBS twice, and immediately after the washing, the resulting cells were observed. DCFD fluorescence (excitation: 488 nm; radiation: 505-530 nm band-pass filter) was imaged on a confocal laser scanning microscope. All procedures were carried out in a dark room.

T98G cells = experiment: Intracellular level of 5-ALA-induced PpIX by flow cytometric analysis, T98G; type: cell-based, human; conditions: 1 mM 5-ALA for 4 hours, relative to 5-ALA-not-treated cells, average±SE
Method: as §1, with “5-ALA was dissolved in RPMI-1640 (9L and T98G), or in 10% FBS-added DMEM (C6 and U251), to a final concentration of 1 mM.” left out
as §2, with “The cells were incubated in a complete medium containing 1 mM 5-ALA for 4 hours, and were then washed with PBS. The resulting cells were peeled from the bottom layer by a trypsin treatment, and were then recovered by centrifugation (400×g, 3 min, and 4° C.).” left out, “In order to prevent photoactivation of 5-ALA-induced PpIX, all procedures were carried out in a dark room.” left out

9L gliosarcoma cells = experiment: Accumulation of ALA-induced PpIX in rat subcutaneous tumor model (HPLC analysis and fluorescence observation); type: in vivo
Method: As experimental animals, inbred male Fischer 344 rats (8 week old) (SLC, Inc. (Hamamatsu, Japan)) were used and were inoculated with 9L gliosarcoma cells. […] In short, 9L gliosarcoma cells (1×10^6 cells) were transplanted into the skin on the dorsal side of each Fischer 344 rat, so as to produce a rat subcutaneous tumor model.
Specifically, after the transplanted tumor had grown to a size of 1 cm in diameter, 100 mg/kg body weight of ALA was injected into the caudal vein of each rat (i.v.). Three hours later, the rat was anesthetized, and a tumor portion, excluding a portion covering the dorsal skin, was excised from the rat. The tumor portion was immediately subjected to a freezing treatment using dry ice, and the resultant was then preserved at −80° C. in a dark place.
Specifically, a tumor sample (approximately 1 mm in diameter) was treated with 200 μl of 0.1 M NaOH, and it was then homogenized on ice, using Powermasher II (Assist, Tokyo, Japan). […]
For the elution, Solvent A was used for 5 minutes, then, linear gradient Solvent B (0% to 100%) was used for 25 minutes, and thereafter, Solvent B was used for 10 minutes. The flow rate for elution was maintained at constant, using a fluorospectro-photometer (excited at 404 nm, and detected at 624 nm). […]

[5] = 1 mM 5-ALA for 4 hours, relative to 5-ALA-not-treated cells
[6] = 4 hours after ionizing irradiation
[7] = 12 hours after ionizing irradiation
[8] = 24 hours after ionizing irradiation

## NCC(=O)CCC(=O)O [ALA, 5-aminolevulinic acid]
U251 cells [1]; [5]
  relative MFI of PpIX fluorescence: 37.6±0.12
U251 cells [1]; [6]
  relative MFI of PpIX fluorescence after ionizing irradiation: 41.6±0.20
U251 cells [1]; [7]
  relative MFI of PpIX fluorescence after ionizing irradiation: 44.2±3.67
U251 cells [1]; [8]
  relative MFI of PpIX fluorescence after ionizing irradiation: 51.1±3.76
9L cells; [5]
  relative MFI of PpIX fluorescence: 21.5±0.12
9L cells; [6]
  relative MFI of PpIX fluorescence after ionizing irradiation: 15.2±0.15
9L cells; [7]
  relative MFI of PpIX fluorescence after ionizing irradiation: 15.9±0.73
9L cells; [8]
  relative MFI of PpIX fluorescence after ionizing irradiation: 13.4±2.43
[2]
  time until ALA is metabolized and discharged from the body: ≤ 48 h
[3]; ALA multiple-dose + ionizing radiation multiple-dose group, p<0.05 vs RT group, p<0.01 vs ALA group
  mean gray value (MGV) of Iba1, microdensitometry, versus other groups: significantly higher
[3]; ALA multiple-dose administration group, 16th day after treatment
  Iba1-positive macrophages in subcutaneous tumor: mainly gathered to the surface of the subcutaneous tumor
[3]; ionizing radiation combined with ALA administration, 16th day after treatment
  gathering of Iba1-positive macrophages to surface and inside of subcutaneous tumor: significantly observed
U251 cells [4]
  DCF fluorescence in the cytoplasm (confocal): apparently increased
T98G cells
  relative MFI of PpIX fluorescence: 15.3±0.89
9L gliosarcoma cells; 3 hours after intravenous administration of ALA 100 mg/kg body weight, mean±SE
  amount of PpIX in tumor induced by ALA (HPLC): 3.66±0.91 pmol/mg protein
9L gliosarcoma cells; 3 hours after intravenous administration of ALA, compared with control tumor without ALA
  fluorescence of subcutaneous tumor under 410 nm light: strong fluorescence

— patent publication US20170056351A1, “COMPOSITION FOR INDUCING TUMOR IMMUNITY” (UNIVERSITY OF OCCUPATIONAL AND ENVIRONMENTAL HEALTH, JAPAN, priority 2014, published 2017)
